# Key:
# [1] = Drug distribution in Sprague-Dawley rat plasma at 10 mg/kg, po measured at 1 hr by LC-MS/MS analysis; format: ADME, organism-based
# [2] = Drug distribution in SCID mouse spleen at 1 mg/kg, po measured at 1 hr by LC-MS/MS analysis; format: ADME, organism-based; settings: read-out: Ct
# [3] = Metabolic stability in dog liver microsome assessed as half life measured upto 60 mins in presence of NADPH by LC-MS/MS analysis; format: ADME, Canis lupus familiaris; settings: liver microsomes
# [4] = Drug distribution in SCID mouse tumor at 3 mg/kg, po measured at 24 hrs by LC-MS/MS analysis; format: ADME, organism-based, Neoplasm; settings: read-out: Ct
# [5] = Volume of distribution at steady state in Sprague-Dawley rat at 1 mg/kg, iv measured upto 24 hrs by LC/MS-MS analysis; format: ADME, organism-based; settings: in vivo, read-out: Vdss
# [6] = target: Voltage-gated inwardly rectifying potassium channel KCNH2 (Homo sapiens, UniProt Q12809); assay: Inhibition of hERG expressed in HEK293 cells; format: toxicity, cell-based
# Voltage-gated inwardly rectifying potassium channel KCNH2, sequence (Q12809 whole entry): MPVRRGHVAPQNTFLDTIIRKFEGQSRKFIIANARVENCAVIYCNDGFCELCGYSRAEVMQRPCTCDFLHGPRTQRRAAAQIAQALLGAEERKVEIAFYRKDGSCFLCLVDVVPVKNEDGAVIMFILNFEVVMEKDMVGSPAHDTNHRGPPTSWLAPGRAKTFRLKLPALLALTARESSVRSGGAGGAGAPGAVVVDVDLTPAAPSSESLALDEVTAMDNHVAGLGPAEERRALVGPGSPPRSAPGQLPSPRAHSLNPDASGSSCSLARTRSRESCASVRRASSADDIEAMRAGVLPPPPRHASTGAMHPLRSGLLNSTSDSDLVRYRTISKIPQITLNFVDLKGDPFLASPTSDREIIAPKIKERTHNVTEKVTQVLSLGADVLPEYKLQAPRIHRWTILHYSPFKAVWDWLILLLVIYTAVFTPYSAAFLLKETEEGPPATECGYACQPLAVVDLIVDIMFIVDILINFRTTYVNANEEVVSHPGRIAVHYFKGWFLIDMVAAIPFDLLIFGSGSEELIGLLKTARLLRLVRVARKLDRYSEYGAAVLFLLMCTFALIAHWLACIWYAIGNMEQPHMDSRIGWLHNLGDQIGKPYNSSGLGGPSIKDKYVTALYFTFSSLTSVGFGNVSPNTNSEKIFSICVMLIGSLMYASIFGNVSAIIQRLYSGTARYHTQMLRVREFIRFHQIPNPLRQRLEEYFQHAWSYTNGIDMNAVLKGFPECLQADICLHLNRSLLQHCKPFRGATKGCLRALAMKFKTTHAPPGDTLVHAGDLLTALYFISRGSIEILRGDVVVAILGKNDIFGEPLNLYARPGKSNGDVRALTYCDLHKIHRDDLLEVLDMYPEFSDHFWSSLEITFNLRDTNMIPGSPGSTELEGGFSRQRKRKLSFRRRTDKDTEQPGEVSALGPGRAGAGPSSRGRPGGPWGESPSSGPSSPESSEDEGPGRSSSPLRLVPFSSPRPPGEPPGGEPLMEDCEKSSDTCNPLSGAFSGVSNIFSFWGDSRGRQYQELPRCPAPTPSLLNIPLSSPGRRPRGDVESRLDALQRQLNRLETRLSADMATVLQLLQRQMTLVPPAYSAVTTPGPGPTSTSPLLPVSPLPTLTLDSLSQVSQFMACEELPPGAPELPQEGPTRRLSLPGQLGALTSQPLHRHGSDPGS
# [7] = Toxicity in immune-competent Sprague-Dawley rat assessed as change in albumin level at 1 to 10 mg/kg, po administered twice a week for 5 weeks; format: organism-based; settings: in vivo, 840 h, dose 1-10 mg/kg
# [8] = Drug distribution in Sprague-Dawley rat spleen at 3 mg/kg, po measured at 1 hr by LC-MS/MS analysis; format: ADME, organism-based; settings: read-out: Ct
# [9] = Drug distribution in Sprague-Dawley rat plasma at 3 mg/kg, po measured at 1 hr by LC-MS/MS analysis; format: ADME, organism-based
# [10] = Drug distribution in Sprague-Dawley rat spleen at 3 mg/kg, po measured at 6 hrs by LC-MS/MS analysis; format: ADME, organism-based; settings: read-out: Ct
# [11] = Drug distribution in Sprague-Dawley rat liver at 10 mg/kg, po measured at 24 hrs by LC-MS/MS analysis; format: ADME, organism-based; settings: read-out: Ct
# VCaP [12] = assay: Antitumor activity against human VCaP cells xenografted in SCID mouse assessed as tumor growth inhibition at 0.3 mg/kg, po administered daily 5 times a week for 4 weeks; format: functional; settings: 672 h, read-out: TGI
# [13] = Toxicity in immune-competent Sprague-Dawley rat assessed as change in monocyte at 1 to 10 mg/kg, po administered twice a week for 5 weeks; format: organism-based; settings: in vivo, 840 h, dose 1-10 mg/kg
# [14] = Toxicity in male BALB/c mouse assessed as body weight loss at 30 mg/kg, po administered twice a week for 5 to 6 weeks; format: organism-based; settings: in vivo, time 5-6 weeks
# [15] = Drug distribution in SCID mouse plasma at 1 mg/kg, po measured at 6 hrs by LC-MS/MS analysis; format: ADME, organism-based
# [16] = target: Protein cereblon/Histone lysine acetyltransferase CREBBP (Rattus norvegicus, UniProt Q56AP7+Q6JHU9); assay: PROTAC activity at CBP/CRBN in rat RG2 cells assessed as induction of CBP degradation; format: cell-based
# Protein cereblon/Histone lysine acetyltransferase CREBBP, sequence (Q56AP7 whole entry): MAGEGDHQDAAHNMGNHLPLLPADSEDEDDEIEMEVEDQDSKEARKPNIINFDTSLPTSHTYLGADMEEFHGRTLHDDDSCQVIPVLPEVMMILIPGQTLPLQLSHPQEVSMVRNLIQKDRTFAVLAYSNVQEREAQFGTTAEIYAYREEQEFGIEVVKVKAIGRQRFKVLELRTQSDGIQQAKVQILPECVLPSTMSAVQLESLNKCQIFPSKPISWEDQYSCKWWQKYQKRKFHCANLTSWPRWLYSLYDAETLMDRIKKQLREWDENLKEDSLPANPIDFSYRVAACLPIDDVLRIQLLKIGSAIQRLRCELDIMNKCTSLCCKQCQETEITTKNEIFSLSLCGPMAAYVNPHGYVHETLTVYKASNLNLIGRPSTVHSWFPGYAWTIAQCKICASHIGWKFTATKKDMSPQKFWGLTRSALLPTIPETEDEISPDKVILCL
# Protein cereblon/Histone lysine acetyltransferase CREBBP, sequence (Q6JHU9 whole entry): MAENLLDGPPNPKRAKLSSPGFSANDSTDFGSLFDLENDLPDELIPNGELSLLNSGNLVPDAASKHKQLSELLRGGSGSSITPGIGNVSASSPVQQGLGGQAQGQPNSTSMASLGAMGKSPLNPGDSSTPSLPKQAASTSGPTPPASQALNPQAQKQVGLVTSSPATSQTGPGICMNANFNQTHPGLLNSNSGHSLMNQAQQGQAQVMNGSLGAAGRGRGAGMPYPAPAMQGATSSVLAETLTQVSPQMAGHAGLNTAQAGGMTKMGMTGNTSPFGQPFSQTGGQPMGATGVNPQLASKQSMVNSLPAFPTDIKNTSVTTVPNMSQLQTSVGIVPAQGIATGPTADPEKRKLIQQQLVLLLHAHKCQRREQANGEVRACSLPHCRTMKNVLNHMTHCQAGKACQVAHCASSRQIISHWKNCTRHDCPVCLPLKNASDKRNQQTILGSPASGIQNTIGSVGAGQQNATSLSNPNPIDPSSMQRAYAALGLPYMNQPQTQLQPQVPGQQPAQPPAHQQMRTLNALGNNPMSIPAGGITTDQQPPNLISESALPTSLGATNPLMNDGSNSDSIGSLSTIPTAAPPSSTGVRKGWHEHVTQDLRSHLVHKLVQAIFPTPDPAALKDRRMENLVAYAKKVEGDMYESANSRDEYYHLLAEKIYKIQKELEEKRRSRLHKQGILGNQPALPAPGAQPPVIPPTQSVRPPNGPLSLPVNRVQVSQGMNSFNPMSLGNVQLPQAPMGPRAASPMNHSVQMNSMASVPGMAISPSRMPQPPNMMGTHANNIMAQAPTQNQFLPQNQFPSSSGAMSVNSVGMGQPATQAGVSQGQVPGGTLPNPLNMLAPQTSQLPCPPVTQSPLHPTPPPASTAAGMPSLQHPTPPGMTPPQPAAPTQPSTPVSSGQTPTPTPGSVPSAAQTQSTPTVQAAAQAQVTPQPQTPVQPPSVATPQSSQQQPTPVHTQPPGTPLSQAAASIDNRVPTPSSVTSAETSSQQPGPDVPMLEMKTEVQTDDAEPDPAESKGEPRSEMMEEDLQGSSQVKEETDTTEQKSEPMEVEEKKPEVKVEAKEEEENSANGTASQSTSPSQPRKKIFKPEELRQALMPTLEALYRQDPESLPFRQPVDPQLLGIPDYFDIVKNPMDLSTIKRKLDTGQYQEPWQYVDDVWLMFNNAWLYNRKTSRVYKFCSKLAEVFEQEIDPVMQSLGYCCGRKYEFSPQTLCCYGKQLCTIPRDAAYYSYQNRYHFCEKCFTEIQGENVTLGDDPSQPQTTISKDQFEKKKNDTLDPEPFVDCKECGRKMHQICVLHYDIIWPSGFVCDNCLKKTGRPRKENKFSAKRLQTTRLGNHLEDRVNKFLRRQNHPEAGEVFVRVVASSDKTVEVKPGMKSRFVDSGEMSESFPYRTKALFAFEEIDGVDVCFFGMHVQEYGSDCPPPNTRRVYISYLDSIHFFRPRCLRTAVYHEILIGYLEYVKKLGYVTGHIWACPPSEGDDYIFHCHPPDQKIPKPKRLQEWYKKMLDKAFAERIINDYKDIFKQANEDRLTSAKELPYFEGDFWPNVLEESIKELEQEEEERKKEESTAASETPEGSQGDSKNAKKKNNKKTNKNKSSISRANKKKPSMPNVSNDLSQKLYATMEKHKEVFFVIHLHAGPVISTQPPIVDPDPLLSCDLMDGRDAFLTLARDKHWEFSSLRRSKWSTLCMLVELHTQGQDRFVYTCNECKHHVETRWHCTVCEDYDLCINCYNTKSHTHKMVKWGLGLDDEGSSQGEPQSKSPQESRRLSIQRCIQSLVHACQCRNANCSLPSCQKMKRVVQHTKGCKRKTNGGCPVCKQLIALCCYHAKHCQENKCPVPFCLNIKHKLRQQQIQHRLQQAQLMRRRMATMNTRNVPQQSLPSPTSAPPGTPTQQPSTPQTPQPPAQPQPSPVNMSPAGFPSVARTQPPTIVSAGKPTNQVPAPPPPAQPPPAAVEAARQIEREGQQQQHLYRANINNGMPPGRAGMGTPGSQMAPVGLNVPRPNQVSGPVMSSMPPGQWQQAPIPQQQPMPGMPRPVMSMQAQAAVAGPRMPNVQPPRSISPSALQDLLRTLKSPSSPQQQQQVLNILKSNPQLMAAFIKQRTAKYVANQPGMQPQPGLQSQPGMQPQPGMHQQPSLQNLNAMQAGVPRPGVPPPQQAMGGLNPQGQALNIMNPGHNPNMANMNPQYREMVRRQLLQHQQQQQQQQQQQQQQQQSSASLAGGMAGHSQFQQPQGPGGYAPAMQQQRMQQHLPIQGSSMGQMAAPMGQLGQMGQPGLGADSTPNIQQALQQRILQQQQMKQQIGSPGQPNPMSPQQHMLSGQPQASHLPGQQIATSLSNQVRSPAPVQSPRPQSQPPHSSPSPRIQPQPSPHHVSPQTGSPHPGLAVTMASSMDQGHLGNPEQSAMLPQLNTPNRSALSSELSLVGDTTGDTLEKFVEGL
# [17] = Toxicity in immune-competent Sprague-Dawley rat assessed as change in eosinophil at 1 to 10 mg/kg, po administered twice a week for 5 weeks; format: organism-based; settings: in vivo, 840 h, dose 1-10 mg/kg
# [18] = Drug distribution in SCID mouse spleen at 3 mg/kg, po measured at 24 hrs by LC-MS/MS analysis; format: ADME, organism-based; settings: read-out: Ct
# VCaP [19] = assay: Antitumor activity against human VCaP cells xenografted in SCID mouse assessed as tumor growth inhibition at 1 mg/kg, po administered twice a week for 4 week; format: functional; settings: 672 h, time 4 weeks, read-out: TGI
# [20] = Drug distribution in SCID mouse liver at 1 mg/kg, po measured at 6 hrs by LC-MS/MS analysis; format: ADME, organism-based; settings: read-out: Ct
# CWR22R = assay: Antitumor activity against human 22Rv1 cells xenografted in SCID mouse assessed as tumor growth inhibition at 0.3 mg/kg, po administered 5 times a week for 3 weeks; format: functional; settings: 22Rv1, 504 h, read-out: TGI
# [21] = Drug distribution in Sprague-Dawley rat heart at 3 mg/kg, po measured at 6 hrs by LC-MS/MS analysis; format: ADME, organism-based; settings: read-out: Ct
# [22] = Drug distribution in SCID mouse tumor at 0.3 mg/kg, po measured at 1 hr by LC-MS/MS analysis; format: ADME, organism-based, Neoplasm; settings: read-out: Ct
# [23] = Half life in ICR mouse at 1 mg/kg, iv measured upto 24 hrs by LC/MS-MS analysis; format: ADME, organism-based; settings: in vivo
# [24] = Toxicity in immune-competent Sprague-Dawley rat assessed as change in platelet count at 1 to 10 mg/kg, po administered twice a week for 5 weeks; format: organism-based; settings: in vivo, 840 h, dose 1-10 mg/kg
# [25] = Drug distribution in SCID mouse plasma at 3 mg/kg, po measured at 24 hrs by LC-MS/MS analysis; format: ADME, organism-based
# [26] = Drug distribution in SCID mouse plasma at 3 mg/kg, po measured at 6 hrs by LC-MS/MS analysis; format: ADME, organism-based
# Cytochrome P450 2D6 = Cytochrome P450 2D6 (Homo sapiens, UniProt P10635); assay: Inhibition of CYP2D6 (unknown origin) preincubated with compound for 5 mins followed by NADPH addition and measured after 20 mins by LC-MS/MS analysis; format: ADME
# Cytochrome P450 2D6, sequence (P10635 whole entry): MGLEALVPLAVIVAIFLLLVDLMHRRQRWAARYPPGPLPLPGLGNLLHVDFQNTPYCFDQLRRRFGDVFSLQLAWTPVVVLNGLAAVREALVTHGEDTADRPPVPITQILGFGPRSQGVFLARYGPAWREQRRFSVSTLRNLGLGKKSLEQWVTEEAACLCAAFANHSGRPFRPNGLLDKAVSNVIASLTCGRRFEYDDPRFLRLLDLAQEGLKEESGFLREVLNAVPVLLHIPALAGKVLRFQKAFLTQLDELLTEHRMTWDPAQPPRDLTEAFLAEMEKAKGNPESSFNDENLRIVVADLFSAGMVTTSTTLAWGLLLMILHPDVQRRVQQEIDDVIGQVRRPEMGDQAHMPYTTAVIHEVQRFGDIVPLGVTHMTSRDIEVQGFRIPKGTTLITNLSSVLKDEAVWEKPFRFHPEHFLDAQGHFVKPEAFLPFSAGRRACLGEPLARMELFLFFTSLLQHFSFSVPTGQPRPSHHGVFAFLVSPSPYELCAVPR
# [27] = Drug distribution in SCID mouse spleen at 1 mg/kg, po measured at 24 hrs by LC-MS/MS analysis; format: ADME, organism-based; settings: read-out: Ct
# [28] = Oral bioavailability in Sprague-Dawley rat at 3 mg/kg measured upto 24 hrs by LC/MS-MS analysis; format: ADME, organism-based; settings: in vivo
# [29] = Drug distribution in Sprague-Dawley rat kidney at 3 mg/kg, po measured at 24 hrs by LC-MS/MS analysis; format: ADME, organism-based; settings: read-out: Ct
# Cytochrome P450 1A2 = target: T1, Cytochrome P450 1A2 (Homo sapiens, UniProt P05177); assay: Inhibition of CYP1A2 (unknown origin) preincubated with compound for 5 mins followed by NADPH addition and measured after 5 mins by LC-MS/MS analysis; format: ADME
# T1 sequence (P05177 whole entry): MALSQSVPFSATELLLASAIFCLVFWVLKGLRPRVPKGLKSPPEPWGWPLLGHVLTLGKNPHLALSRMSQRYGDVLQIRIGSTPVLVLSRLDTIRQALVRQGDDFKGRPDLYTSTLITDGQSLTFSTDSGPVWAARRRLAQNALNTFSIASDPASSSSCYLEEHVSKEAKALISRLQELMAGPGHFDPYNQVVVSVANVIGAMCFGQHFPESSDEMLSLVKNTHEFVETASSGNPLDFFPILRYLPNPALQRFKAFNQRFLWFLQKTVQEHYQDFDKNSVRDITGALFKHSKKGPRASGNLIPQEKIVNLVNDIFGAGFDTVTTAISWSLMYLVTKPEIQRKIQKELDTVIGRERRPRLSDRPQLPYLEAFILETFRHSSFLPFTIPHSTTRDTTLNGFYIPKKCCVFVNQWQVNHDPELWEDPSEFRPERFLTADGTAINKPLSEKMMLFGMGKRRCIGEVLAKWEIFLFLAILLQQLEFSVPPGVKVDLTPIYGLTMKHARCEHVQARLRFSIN
# [30] = Drug distribution in SCID mouse liver at 0.3 mg/kg, po measured at 1 hr by LC-MS/MS analysis; format: ADME, organism-based; settings: read-out: Ct
# VCaP [31] = assay: Antitumor activity against human VCaP cells xenografted in SCID mouse assessed as tumor growth inhibition at 3 mg/kg, po administered for 4 week; format: functional; settings: 672 h, time 4 weeks, read-out: TGI
smiles,measurement,setting,value
CC(=O)N1CCc2c(c(N3CCCc4cc(-c5cnn(C)c5)c(C(F)F)cc43)nn2[C@H]2CC[C@H](CN3Cc4cc5c(cc4C3)C(=O)N(C3CCC(=O)NC3=O)C5=O)CC2)C1 (some centres undefined),concentration at 1 h,[1],321 ng/mL
same,concentration at 1 h,[2],146 ng/mL
same,half-life,[3],49 min
same,concentration at 24 h,[4],12 ng/mL
same,Vd,[5],4.9 L/kg
same,IC50,[6],> 30 µM
same,Activity,[7],Non-Toxic
same,concentration at 1 h,[8],832 ng/g
same,concentration at 1 h,[9],109 ng/mL
same,concentration at 6 h,[10],112 ng/g
same,concentration at 24 h,[11],20.2 ng/g
same,inhibition in vivo at 0.3 mg/kg,VCaP [12],84%
same,Activity,[13],Non-Toxic
same,Activity,[14],< 5%
same,concentration at 6 h,[15],43.2 ng/mL
same,DC50,[16],0.0001 µM
same,Activity,[17],Non-Toxic
same,concentration at 24 h,[18],21.2 ng/mL
same,inhibition in vivo at 1 mg/kg,VCaP [19],81%
same,concentration at 6 h,[20],301 ng/mL
same,inhibition in vivo at 0.3 mg/kg,CWR22R,56%
same,concentration at 6 h,[21],26.4 ng/g
same,concentration at 1 h,[22],27.8 ng/g
same,t1/2,[23],204 min
same,Activity,[24],Non-Toxic
same,concentration at 24 h,[25],12.7 ng/mL
same,concentration at 6 h,[26],763 ng/mL
same,IC50,Cytochrome P450 2D6,> 10 µM
same,concentration at 24 h,[27],2.8 ng/mL
same,bioavailability,[28],67%
same,concentration at 24 h,[29],2.1 ng/g
same,IC50,Cytochrome P450 1A2,> 10 µM
same,concentration at 1 h,[30],323 ng/mL
same,inhibition in vivo at 3 mg/kg,VCaP [31],57%

# — ChEMBL document CHEMBL5543112, “Discovery of CBPD-268 as an Exceptionally Potent and Orally Efficacious CBP/p300 PROTAC Degrader Capable of Achieving Tumor Regression” (J Med Chem, 2024)
